Measured values: patent US20200282003A1, “MITOCHONDRIAL-TARGETED AN[…] AGAINST MECHANICAL VENTILATION-INDUCED DIAPHRAGM DYSFUNCTION AND SKELETAL MUSCLE ATROPHY” (Cornell University, priority 2010, published 2020)
Square brackets hold non-standard residues; d marks the D form. Peptide text beside a SMILES is read from it. Dmt = Cc1cc(O)cc(C)c1C[C@H](N)C(=O)O

Legend:
[1] = test system: several mammalian cell types; conditions: energy-independent manner; cited from earlier work
[2] = mean ± SEM
Excerpt: To analyze mitochondrial ROS emissions following MV-induced diaphragmatic oxidative stress and weakness, rats were randomly assigned to one of three experimental groups (n=12/group): (1) an acutely anesthetized control group; (2) a 12-hour MV group (MV); and 3) a 12-hour MV group treated with the mitochondrial-targeted antioxidant SS-31 (MVSS). Because of the large tissue requirement for our numerous dependent measures, six animals from each experimental group were used for the mitochondrial measures and the remaining six animals in each group were employed in all other biochemical assays.
Animals in the control group were acutely anesthetized with an intraperitoneal (IP) injection of sodium pentobarbital (60 mg/kg body weight). […] The mitochondrial-targeted antioxidant SS-31 was dissolved in saline and delivered in a bolus (loading) dose (3 mg/kg; subcutaneous injection) 15 min prior to initiation of MV. A constant intravenous infusion (0.05 mg/kg/hr) of SS-31 was maintained throughout MV.
All surgical procedures were performed using aseptic techniques. Animals in the MV groups were anesthetized with an IP injection of sodium pentobarbital (60 mg/kg body weight), tracheostomized, and mechanically ventilated with a pressure-controlled ventilator (Servo Ventilator 300, Siemens) for 12 hours with the following settings: upper airway pressure limit: 20 cm H2O, typical pressure generation above PEEP was 6-9 cm H2O, respiratory rate: 80 bpm; and PEEP: 1 cm H2O.
The carotid artery was cannulated to permit the continuous measurement of blood pressure and the collection of blood during the protocol. Arterial blood samples (100 μl per sample) were removed periodically and analyzed for arterial pO2, pCO2 and pH using an electronic blood-gas analyzer (GEM Premier 3000; Instrumentation Laboratory, Lexington, Mass.). Ventilator adjustments were made if arterial PCO2 exceeded 40 mm Hg. Arterial PO2 was maintained >60 mmHg throughout the experiment by increasing the FIO2 (22-26% oxygen).
A venous catheter was inserted into the jugular vein for continuous infusion of sodium pentobarbital (˜10 mg/kg/hr) and fluid replacement. Body temperature was maintained at 37° C. by use of a recirculating heating blanket and heart rate was monitored via a lead II electrocardiograph. Continuous care during the MV protocol included lubricating the eyes, expressing the bladder, removing airway mucus, rotating the animal, and passively moving the limbs. Animals also received an intramuscular injection of glycopyrrolate (0.18 mg/kg) every two hours during MV to reduce airway secretions.

[3] = rats at completion of 12 h MV with SS-31

Compound	Penetration of the plasma membrane [1]	Arterial PCO2 [2, 3]	Arterial PO2 [2, 3]	Arterial pH [2, 3]	Systolic blood pressure [2, 3]	Heart rate ([2]; rats at completion of 12 h MV, SS-31 3 mg/kg s.c. bolus + 0.05 mg/kg/hr i.v.)
2′,6′-Dmt-D-Arg-Phe-Lys-NH2 [SS-02]	readily penetrates					
Cc1cc(O)cc(C)c1C[C@H](NC(=O)[C@H](N)CCCNC(=N)N)C(=O)N[C@@H](CCCCN)C(=O)N[C@@H](Cc1ccccc1)C(N)=O [SS-31, D-Arg-2′,6′-Dmt-Lys-Phe-NH2] (H-[dR][Dmt]KF-NH2)		46 ± 1	75 ± 5 mm/Hg	7.41 ± 0.01	108 ± 5 mm/Hg	347 ± 7 beats/min
